Measurements published in ChEMBL document CHEMBL5223063, “Recent advances in urea- and thiourea-containing compounds: focus on innovative approaches in medicinal chemistry and organic synthesis” (RSC Med Chem, 2021).

Columns and labels:
[1] = Oral bioavailability in rat; format: ADME, organism-based; settings: in vivo
[2] = Permeability coefficient of the compound in human Caco-2 cells; format: ADME, cell-based; settings: read-out: Kp
[3] = 1-Octanol/phosphate buffer partition coefficient, logP of the compound at pH 7.40; format: physicochemical; settings: pH 7.4
[4] = Induction of anion transport in NaCl loaded POPC liposomes assessed transmembrane permeability by measuring chloride efflux by ion selective electrode
[5] = Dissociation constant, pKa of compound; format: physicochemical

| Compound | logD [3] | EC50 [4] | also measured |
| --- | --- | --- | --- |
| COC(=O)C1=C(C)NC(C)=C(C(=O)OC)C1c1cccc(NC(=O)NCCCN2CCC(c3cccc(OC)c3)CC2)c1 |  |  | bioavailability [1]: 0.1%; Papp [2]: 1.9 ×10⁻⁶ cm/s |
| Cc1cccc(Nc2ccncc2S(=O)(=O)N/C(=C/[N+](=O)[O-])NC(C)C)c1 | 1.12 |  |  |
| O=c1c(Nc2cc(C(F)(F)F)cc(C(F)(F)F)c2)c(Nc2cc(C(F)(F)F)cc(C(F)(F)F)c2)c1=O |  | 0.01 mol% |  |
| Cc1cccc(Nc2ccncc2S(=O)(=O)NC(=NC#N)NC(C)C)c1 | 0.86 |  | pKa [5]: 6 |
| FC(F)(F)c1cc(NC(=S)Nc2cc(C(F)(F)F)cc(C(F)(F)F)c2)cc(C(F)(F)F)c1 |  | 0.16 mol% |  |
| Cc1cccc(Nc2ccncc2S(=O)(=O)NC(=S)NC(C)C)c1 | 0.61 |  |  |
| COC(=O)C1=C(C)NC(C)=C(C(=O)OC)C1c1cccc(N/C(=N/C#N)NCCCN2CCC(c3cccc(OC)c3)CC2)c1 |  |  | Papp [2]: 4.3 ×10⁻⁶ cm/s |
| O=C(Nc1cc(C(F)(F)F)cc(C(F)(F)F)c1)Nc1cc(C(F)(F)F)cc(C(F)(F)F)c1 |  | 0.3 mol% |  |
| Cc1cccc(Nc2ccncc2S(=O)(=O)NC(=O)NC(C)C)c1 [TORSEMIDE] | 0.45 |  | pKa [5]: 6.68 |
